Assay results from article PMC7901646, “Pyrrolo[2′,3′:3,4]cyclohepta[1,2-d][1,2]oxazoles, a New Class of Antimitotic Agents Active against Multiple Malignant Cell Types” (Journal of Medicinal Chemistry, 2020).

Key:
[1] = tested on: 786–0; experiment: NCI-60 screen; assay type: cell-based; conditions: Homo sapiens, Renal Cancer
Method: (§1) All the synthesized compounds 51–76 were tested at a 10^–5 M concentration for their antitumor activity on the full NCI-60 panel comprising cancer cell lines derived from nine human cancer cell types (leukemia, non-small-cell lung, colon, central nervous system, melanoma, ovarian, renal, prostate, and breast).[50]

[2] = tested on: ACHN; experiment: NCI-60 screen; assay type: cell-based; conditions: Homo sapiens, Renal Cancer
Method: as §1

[3] = tested on: BT-549; experiment: NCI-60 screen; assay type: cell-based; conditions: Homo sapiens, Breast Cancer
Method: as §1

[4] = tested on: HCT-15; experiment: NCI-60 screen; assay type: cell-based; conditions: Homo sapiens, Colon Cancer
Method: as §1

[5] = tested on: HL-60(TB); experiment: NCI-60 screen; assay type: cell-based; conditions: Homo sapiens, Leukemia
Method: as §1

[6] = tested on: HOP-62; experiment: NCI-60 screen; assay type: cell-based; conditions: Homo sapiens, Non-Small-Cell Lung Cancer
Method: as §1

[7] = tested on: HOP-92; experiment: NCI-60 screen; assay type: cell-based; conditions: Homo sapiens, Non-Small-Cell Lung Cancer
Method: as §1

[8] = tested on: HS 578T; experiment: NCI-60 screen; assay type: cell-based; conditions: Homo sapiens, Breast Cancer
Method: as §1

[9] = tested on: HT29; experiment: NCI-60 screen; assay type: cell-based; conditions: Homo sapiens, HT-29; Colon Cancer
Method: as §1

[10] = tested on: MALME-3M; experiment: NCI-60 screen; assay type: cell-based; conditions: Homo sapiens, Melanoma
Method: as §1

[11] = tested on: MDA-MB-231/ATCC; experiment: NCI-60 screen; assay type: cell-based; conditions: Homo sapiens, Breast Cancer
Method: as §1

[12] = tested on: MDA-MB-468; experiment: NCI-60 screen; assay type: cell-based; conditions: Homo sapiens, Breast Cancer
Method: as §1

[13] = tested on: MOLT-4; experiment: NCI-60 screen; assay type: cell-based; conditions: Homo sapiens, Leukemia
Method: as §1

[14] = tested on: NCI-H23; experiment: NCI-60 screen; assay type: cell-based; conditions: Homo sapiens, Non-Small-Cell Lung Cancer
Method: as §1

[15] = tested on: NCI-H322M; experiment: NCI-60 screen; assay type: cell-based; conditions: Homo sapiens, Non-Small-Cell Lung Cancer
Method: as §1

[16] = tested on: NCI/ADR-RES; experiment: NCI-60 screen; assay type: cell-based; conditions: Homo sapiens, Ovarian Cancer
Method: as §1

[17] = tested on: OVCAR-4; experiment: NCI-60 screen; assay type: cell-based; conditions: Homo sapiens, Ovarian Cancer
Method: as §1

[18] = tested on: OVCAR-8; experiment: NCI-60 screen; assay type: cell-based; conditions: Homo sapiens, Ovarian Cancer
Method: as §1

[19] = tested on: RPMI-8226; experiment: NCI-60 screen; assay type: cell-based; conditions: Homo sapiens, Leukemia
Method: as §1

[20] = tested on: RXF 393; experiment: NCI-60 screen; assay type: cell-based; conditions: Homo sapiens, Renal Cancer
Method: as §1

[21] = tested on: SF-539; experiment: NCI-60 screen; assay type: cell-based; conditions: Homo sapiens, CNS Cancer
Method: as §1

[22] = tested on: SK-MEL-28; experiment: NCI-60 screen; assay type: cell-based; conditions: Homo sapiens, Melanoma
Method: as §1

[23] = tested on: SK-MEL-2; experiment: NCI-60 screen; assay type: cell-based; conditions: Homo sapiens, Melanoma
Method: as §1

[24] = tested on: SN12C; experiment: NCI-60 screen; assay type: cell-based; conditions: Homo sapiens, Renal Cancer
Method: as §1

[25] = tested on: SNB-75; experiment: NCI-60 screen; assay type: cell-based; conditions: Homo sapiens, CNS Cancer
Method: as §1

[26] = tested on: SR; experiment: NCI-60 screen; assay type: cell-based; conditions: Homo sapiens, Leukemia
Method: as §1

[27] = tested on: T-47D; experiment: NCI-60 screen; assay type: cell-based; conditions: Homo sapiens, T47D; Breast Cancer
Method: as §1

[28] = tested on: U251; experiment: NCI-60 screen; assay type: cell-based; conditions: Homo sapiens, U-251; CNS Cancer
Method: as §1

[29] = tested on: UACC-62; experiment: NCI-60 screen; assay type: cell-based; conditions: Homo sapiens, Melanoma
Method: as §1

[30] = tested on: UO-31; experiment: NCI-60 screen; assay type: cell-based; conditions: Homo sapiens, Renal Cancer
Method: as §1

[31] = tested on: human peripheral blood lymphocytes not stimulated with PHA; experiment: Cytotoxicity in resting PBLs (MTT); assay type: cell-based; conditions: Lymphocyte, 72 h, mean ± SEM, three experiments, read-out: GI50 PBLresting
Method: (§2) PBLs were obtained from human peripheral blood (leucocyte rich plasma-buffy coats) from healthy volunteers using the Lymphoprep (Fresenius KABI Norge AS) gradient density centrifugation.
(§3) After extensive washing, cells were resuspended (1.0 × 10^6 cells/mL) in RPMI-1640 with 10% fetal bovine serum and incubated overnight. For cytotoxicity evaluations in proliferating PBL cultures, nonadherent cells were resuspended at 5 × 10^5 cells/mL in growth medium, containing 2.5 μg/mL PHA (Irvine Scientific). Different concentrations of the test compounds were added, and viability was determined 72 h later by the MTT test. For cytotoxicity evaluations in resting PBL cultures, nonadherent cells were resuspended (5 × 10^5 cells/mL) and treated for 72 h with the test compounds.

[32] = tested on: human peripheral blood lymphocytes stimulated with PHA; experiment: Cytotoxicity in PHA-stimulated PBLs (MTT); assay type: cell-based; conditions: Lymphocyte, 72 h, mean ± SEM, three experiments, read-out: GI50 PBLPHA
Method: as §2, §3

[33] = biological target: bovine brain tubulin (Bos taurus, UniProt P81947+Q6B856); experiment: Inhibition of tubulin assembly (turbidimetry); assay type: biochemical; conditions: 9 μM (0.9 mg/mL) tubulin, 20 min at 30 °C; read-out: inhibition of tubulin assembly IC50 ± SD
[34] = tested on: HeLa cells; experiment: Flow cytometric cell cycle distribution; assay type: cell-based; conditions: 24 h
Method: To evaluate the effects of compounds 63, 66, and 75 on cell cycle progression, we first treated HeLa cells for 24 h.The cells were then labeled with propidium iodide (PI) and analyzed by flow cytometry. As shown in Figure 5 (panel B), compound 66 induced arrest of the cell cycle in the G2/M phase.
5 ×10^5 HeLa cells were treated with different concentrations of the test compounds for 24 h. After the incubation period, the cells were collected, centrifuged, and fixed with ice-cold ethanol (70%). The cells were treated with lysis buffer containing RNase A and 0.1% Triton X-100 and stained with PI. Samples were analyzed on a Cytomic FC500 flow cytometer (Beckman Coulter). DNA histograms were analyzed using MultiCycle for Windows (Phoenix Flow Systems).

[35] = biological target: tubulin colchicine site (Bos taurus, UniProt P81947+Q6B856); experiment: Inhibition of [3H]colchicine binding to tubulin; conditions: read-out: inhibition of colchicine binding % inhibition ± SD
Method: Reaction mixtures in the assembly assay contained 9 μM (0.9 mg/mL) tubulin in the assembly assay, and in the colchicine assay they contained 0.5 μM tubulin, 5.0 μM [^3H]colchicine, and 5.0 μM inhibitor.
Analysis of effects on tubulin polymerization was performed by turbidimetry at 350 nm in recording spectrophotometers equipped with electronic temperature controllers as described in detail elsewhere.[71] […] The binding of [^3H]colchicine to tubulin was perfomed as described in detail previously[72] except that the tubulin concentration was reduced from 0.1 mg/mL to 0.05 mg/mL and only one, instead of two, DEAE-cellulose filter was used for each reaction mixture.

[36] = tested on: HCC-2998; experiment: NCI-60 screen; assay type: cell-based; conditions: Homo sapiens, Colon Cancer
Method: as §1

[37] = tested on: OVCAR-5; experiment: NCI-60 screen; assay type: cell-based; conditions: Homo sapiens, Ovarian Cancer
Method: as §1

[38] = tested on: A549/ATCC; experiment: NCI-60 screen; assay type: cell-based; conditions: Homo sapiens, Non-Small-Cell Lung Cancer
Method: as §1

tubulin colchicine site, sequence (Q6B856 whole entry): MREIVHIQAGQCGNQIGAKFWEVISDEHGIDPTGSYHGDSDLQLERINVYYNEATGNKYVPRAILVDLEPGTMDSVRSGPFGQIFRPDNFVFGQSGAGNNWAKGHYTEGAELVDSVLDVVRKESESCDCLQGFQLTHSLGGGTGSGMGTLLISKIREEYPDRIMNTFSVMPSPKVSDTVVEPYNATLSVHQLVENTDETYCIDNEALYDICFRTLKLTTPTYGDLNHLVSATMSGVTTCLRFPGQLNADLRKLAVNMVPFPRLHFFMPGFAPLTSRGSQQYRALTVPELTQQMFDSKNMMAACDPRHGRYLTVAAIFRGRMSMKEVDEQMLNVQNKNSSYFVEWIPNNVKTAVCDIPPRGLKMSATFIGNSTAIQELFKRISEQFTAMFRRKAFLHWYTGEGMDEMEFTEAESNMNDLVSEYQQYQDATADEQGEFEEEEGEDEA
tubulin colchicine site, sequence (P81947 whole entry): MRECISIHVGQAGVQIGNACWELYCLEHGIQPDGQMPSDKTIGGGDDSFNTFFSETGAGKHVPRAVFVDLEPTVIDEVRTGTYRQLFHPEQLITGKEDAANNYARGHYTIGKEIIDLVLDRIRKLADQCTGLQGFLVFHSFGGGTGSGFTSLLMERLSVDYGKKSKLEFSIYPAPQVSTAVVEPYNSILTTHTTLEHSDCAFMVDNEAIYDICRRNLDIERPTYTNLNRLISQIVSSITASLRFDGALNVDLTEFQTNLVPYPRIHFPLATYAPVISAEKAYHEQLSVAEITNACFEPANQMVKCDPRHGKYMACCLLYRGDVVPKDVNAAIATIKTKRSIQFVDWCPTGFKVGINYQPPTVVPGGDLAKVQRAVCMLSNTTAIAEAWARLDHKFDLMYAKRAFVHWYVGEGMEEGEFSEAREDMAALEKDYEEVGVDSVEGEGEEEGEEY
bovine brain tubulin, sequence (Q6B856 whole entry): as the sequence (Q6B856 whole entry) above
bovine brain tubulin, sequence (P81947 whole entry): as the sequence (P81947 whole entry) above

SMILES | GI50 [1] [nM] | GI50 [2] [nM] | GI50 [3] [nM] | GI50 [4] [nM] | GI50 [5] [nM] | GI50 [6] [nM] | GI50 [8] [nM] | GI50 [9] [nM] | GI50 [10] [nM] | GI50 [11] [nM] | GI50 [12] [nM] | GI50 [13] [nM] | GI50 [16] [nM] | GI50 [17] [nM] | GI50 [18] [nM] | GI50 [19] [nM] | GI50 [20] [nM] | GI50 [21] [nM] | GI50 [26] [nM] | GI50 [29] [nM] | also measured
CCOC(=O)c1c(Cl)c2c(n1Cc1cc(OC)cc(OC)c1)-c1oncc1CCC2 [Compound 75, Ethyl 7-Chloro-9-(3,5-dimethoxybenzyl)-4,5,6,9-tetrahydropyrrolo[2′,3′:3,4]cyclohepta[1,2-d][1,2]oxazole-8-carboxylate] | 4240 | 940 | 27000 | 370 | 310 | 290 | 450 | 270 | 200 | 840 | 730 | 580 | 200 | 850 | 410 | 390 | 250 | 240 | 70 | 110 | GI50 [7]: 460 nM; GI50 [14]: 680 nM; GI50 [15]: 510 nM; GI50 [22]: 660 nM; GI50 [23]: 220 nM; GI50 [24]: 830 nM; GI50 [25]: 220 nM; GI50 [27]: 440 nM; GI50 [28]: 310 nM; GI50 [30]: 780 nM; GI50 [31]: > 100000 nM; GI50 [32]: > 100000 nM; IC50 [33]: 1900 ± 100 nM; concentration at which G2/M arrest first occurred [34]: 0.25 µM; inhibition at 5 µM [35]: 42 ± 5%
CCOC(=O)c1cc2c(n1Cc1cc(OC)c(OC)c(OC)c1)-c1oncc1CCC2 [Compound 67, Ethyl 9-(3,4,5-Trimethoxybenzyl)-4,5,6,9-tetrahydropyrrolo[2′,3′:3,4]cyclohepta[1,2-d][1,2]oxazole-8-carboxylate] | 970 | 290 | 290 | 160 | 190 | 170 | 340 | 70 | 50 | 480 | 740 | 390 | 60 | 720 | 240 | 380 | 120 | 120 | 40 | 50 | GI50 [36]: 300 nM; GI50 [14]: 370 nM; GI50 [15]: 320 nM; GI50 [37]: 530 nM; GI50 [22]: 300 nM; GI50 [24]: 760 nM; GI50 [25]: 70 nM; GI50 [27]: 100 nM; GI50 [28]: 140 nM; GI50 [30]: 80 nM; IC50 [33]: 4600 ± 800 nM; inhibition at 5 µM [35]: 25 ± 0.01%
CCOC(=O)c1cc2c(n1Cc1cccc(OC)c1)-c1oncc1CCC2 [Compound 63, Ethyl 9-(3-Methoxybenzyl)-4,5,6,9-tetrahydropyrrolo[2′,3′:3,4]cyclohepta[1,2-d][1,2]oxazole-8-carboxylate] | 6740 | 3400 | 980 | 450 | 530 | 4340 | 1600 | 360 | 890 | 1840 | 340 | 2300 | 430 | 18700 | 3130 | 1890 | 670 | 1140 | 280 | 510 | GI50 [38]: 760 nM; GI50 [36]: 4180 nM; GI50 [7]: 4210 nM; GI50 [37]: 5940 nM; GI50 [22]: 5120 nM; GI50 [23]: 560 nM; GI50 [24]: 3510 nM; GI50 [25]: 1600 nM; GI50 [27]: 2000 nM; GI50 [30]: 3370 nM; GI50 [31]: > 100000 nM; GI50 [32]: > 100000 nM; IC50 [33]: 6300 ± 60 nM; concentration at which G2/M arrest first occurred [34]: 1 µM
CCOC(=O)c1c(Cl)c2c(n1Cc1ccccc1)-c1oncc1CCC2 [Compound 70, Ethyl 7-Chloro-9-benzyl-4,5,6,9-tetrahydropyrrolo[2′,3′:3,4]cyclohepta[1,2-d][1,2]oxazole-8-carboxylate] | – | 5890 | – | 3390 | 3320 | 4350 | – | 2950 | 3680 | 3510 | – | 3580 | 2830 | – | – | 3270 | – | – | 1800 | 4010 | GI50 [15]: > 100000 nM; GI50 [37]: > 100000 nM; GI50 [27]: 2690 nM
CCOC(=O)c1cc2c(n1Cc1ccccc1OC)-c1oncc1CCC2 [Compound 62, Ethyl 9-(2-Methoxybenzyl)-4,5,6,9-tetrahydropyrrolo[2′,3′:3,4]cyclohepta[1,2-d][1,2]oxazole-8-carboxylate] | > 100000 | 16600 | 7730 | 2240 | 3040 | 1890 | 3380 | 910 | 3080 | 9120 | 2950 | 5680 | 1360 | 9350 | 3850 | 4110 | 2080 | 2480 | 430 | 3370 | GI50 [36]: > 100000 nM; GI50 [7]: 300 nM; GI50 [14]: 8520 nM; GI50 [15]: 5230 nM; GI50 [37]: > 100000 nM; GI50 [22]: > 100000 nM; GI50 [24]: > 100000 nM; GI50 [25]: 1970 nM; GI50 [27]: 2460 nM; GI50 [28]: 3780 nM; GI50 [30]: 6530 nM
CCOC(=O)c1cc2c(n1Cc1cc(OC)cc(OC)c1)-c1oncc1CCC2 [Compound 66, Ethyl 9-(3,5-Dimethoxybenzyl)-4,5,6,9-tetrahydropyrrolo[2′,3′:3,4]cyclohepta[1,2-d][1,2]oxazole-8-carboxylate] | 50 | 60 | 1720 | 40 | 30 | – | 40 | 30 | – | 240 | 30 | 260 | 30 | 13400 | 80 | 50 | 20 | 30 | 30 | 70 | GI50 [38]: 60 nM; GI50 [36]: 230 nM; GI50 [37]: 180 nM; GI50 [22]: 90 nM; GI50 [23]: 40 nM; GI50 [24]: 70 nM; GI50 [25]: 30 nM; GI50 [30]: 50 nM; GI50 [31]: > 100000 nM; GI50 [32]: > 100000 nM; IC50 [33]: 2600 ± 30 nM; concentration at which G2/M arrest first occurred [34]: 0.125 µM; cells arrested in G2/M ([34]; 0.5 μM): over 80%; inhibition at 5 µM [35]: 62 ± 2%
